Broadly, the IC50 is the concentration that inhibits the measured activity by half. What is called inhibition is the percentage by which the read-out fell short of the control.

Structures are written as SMILES.

In one assay the target is T1, human DNA Topo II (Homo sapiens, UniProt P11388).
T1 construct: purchased USB Corp., USA
Put plainly: In vitro DNA Topo II-mediated relaxation assay (supercoiled pBR322). The format is biochemical. The note with it: for IC50: means of three experiments, read-out: Topo II IC50 (µM*±SD); for inhibition at 0.1 µM / inhibition at 1 µM / inhibition at 10 µM / inhibition at 100 µM: recombinant Topo II relaxation; for inhibition at 0.1 µM: compound at 0.1 μM, read-out: Percentage of inhibition of Topo II, 0.1 μM; for inhibition at 1 µM: compound at 1 μM, read-out: Percentage of inhibition of Topo II, 1 μM; for inhibition at 10 µM: compound at 10 μM, read-out: Percentage of inhibition of Topo II, 10 μM; for inhibition at 100 µM: compound at 100 μM, read-out: Percentage of inhibition of Topo II, 100 μM. As for the experimental part: DNA Topo II inhibitory activities of the targeted compounds were measured as follows. A mixture of 100 ng of supercoiled pBR322 plasmid DNA (Fermentas, USA) and 2 units of human DNA Topo II (USB Corp., USA) was incubated with and without the prepared compounds in the assay buffer (10 µM Tris-HCl pH 7.9) containing 50 µM NaCl, 4 µM MgCl2, 1 µM EDTA, 1 µM ATP, and 15 mg/ml bovine serum albumin for 30 min at 37 °C. The reaction in a final volume of 10 µl was terminated by the addition of 4 µl of 6 µM EDTA. DNA samples were then electrophoresed on 1% agarose gel containing 0.5 µg/ml ethidium bromide in gel and buffer at high voltage (100–250 v) until the dye front has migrated about 4–6 cm down the gel. with a running buffer of TAE Tris-acetate– EDTA (TAE). Gels were stained for 15 min in water. DNA bands were visualised by transillumination with UV light and quantitated using AlphaI-maker TM (Alpha Innotech Corporation).
Well-known Topo II inhibitor doxorubicin was used as a positive control. The reaction products of Topo II relaxation assays were analysed by electrophoretic mobility and developed in ethidium bromide in the presence of UV light. The inhibitory activities were evaluated at 4 concentrations of 100, 10, 1, and 0.1 μM for all compounds as shown in (Figure 6). Topo II inhibitory activities of the tested compounds are summarised in (Table 2).

Another assay relates to PC-3 cells. As to the kind of experiment: Apoptosis determination by annexin V-FITC/PI assay, PC-3 cells. The settings on record: at IC50, 24 h. The format is cell-based, human. The protocol:
Apoptosis was evaluated using Annexin V fluorescein isothiocyanate (FITC) and propidium iodide (PI) using the Annexin V-FITC/PI apoptosis detection kit (Biovision, Mountain View, CA # K101-25). According to the manufacturer’s instructions after staining the cells with annexin V fluorescein (FITC) isothiocyanate. […] Cells were centrifuged and washed once with serum-containing media followed by resuspension in 500 µl of binding buffer. Then 5 µl Annexin V-FITC and 5 µl of (PI […]) were added and incubated for 5 min at room temperature in the dark. Analyses were performed using a flow cytometer (EX = 488 nm: Em = 530 nm) using a FITC signal detector and PI staining by a phycoerythrin emission signal detector.
While compound 8a induced both early and late apoptosis with 41.15- and 76.77-fold more than the control, respectively, and induced total apoptosis and necrosis with 14.87- and 2.44-fold more than the control, sequentially (Figure 16).

T1 sequence (P11388 whole entry): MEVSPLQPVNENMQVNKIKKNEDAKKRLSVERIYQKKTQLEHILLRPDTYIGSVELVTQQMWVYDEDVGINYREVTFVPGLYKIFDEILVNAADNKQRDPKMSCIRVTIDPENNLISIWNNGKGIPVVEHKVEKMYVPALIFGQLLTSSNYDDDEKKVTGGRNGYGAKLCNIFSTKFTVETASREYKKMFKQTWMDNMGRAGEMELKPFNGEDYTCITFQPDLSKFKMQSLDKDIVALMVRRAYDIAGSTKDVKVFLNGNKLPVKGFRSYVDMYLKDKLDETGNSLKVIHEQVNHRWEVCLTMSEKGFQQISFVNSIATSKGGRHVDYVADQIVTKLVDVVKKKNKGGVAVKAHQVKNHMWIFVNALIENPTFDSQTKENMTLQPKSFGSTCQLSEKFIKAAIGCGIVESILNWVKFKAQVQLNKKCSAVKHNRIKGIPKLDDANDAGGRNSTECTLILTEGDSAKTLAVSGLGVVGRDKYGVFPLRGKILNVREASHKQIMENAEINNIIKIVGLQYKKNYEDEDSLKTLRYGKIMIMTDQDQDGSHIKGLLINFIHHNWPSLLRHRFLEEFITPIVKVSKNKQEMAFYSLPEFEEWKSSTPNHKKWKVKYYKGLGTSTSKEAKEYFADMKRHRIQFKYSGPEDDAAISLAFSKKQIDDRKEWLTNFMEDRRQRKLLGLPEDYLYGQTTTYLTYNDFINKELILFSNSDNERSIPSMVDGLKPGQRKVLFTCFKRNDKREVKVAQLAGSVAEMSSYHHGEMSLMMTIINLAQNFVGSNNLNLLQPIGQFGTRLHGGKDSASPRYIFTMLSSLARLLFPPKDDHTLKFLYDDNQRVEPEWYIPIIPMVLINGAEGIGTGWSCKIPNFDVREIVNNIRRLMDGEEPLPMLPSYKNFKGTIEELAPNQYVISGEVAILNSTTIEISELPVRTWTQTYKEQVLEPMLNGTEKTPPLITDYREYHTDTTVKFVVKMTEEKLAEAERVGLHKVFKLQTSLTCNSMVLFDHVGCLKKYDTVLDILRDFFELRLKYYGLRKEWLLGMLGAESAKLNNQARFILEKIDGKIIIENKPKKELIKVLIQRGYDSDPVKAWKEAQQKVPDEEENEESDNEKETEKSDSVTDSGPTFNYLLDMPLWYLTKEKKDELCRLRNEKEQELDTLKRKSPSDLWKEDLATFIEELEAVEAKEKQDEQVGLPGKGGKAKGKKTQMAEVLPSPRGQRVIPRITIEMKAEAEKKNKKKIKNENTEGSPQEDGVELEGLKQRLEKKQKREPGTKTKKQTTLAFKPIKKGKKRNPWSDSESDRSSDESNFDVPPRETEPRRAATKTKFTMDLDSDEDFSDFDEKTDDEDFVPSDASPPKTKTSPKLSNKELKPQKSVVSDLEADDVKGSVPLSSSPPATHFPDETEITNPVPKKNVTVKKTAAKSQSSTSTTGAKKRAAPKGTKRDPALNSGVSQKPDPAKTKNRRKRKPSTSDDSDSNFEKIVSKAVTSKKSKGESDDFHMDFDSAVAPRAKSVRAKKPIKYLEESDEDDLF

On to `O=C1CC(=O)N(C(=O)CN2CCN(c3cc4c(cc3F)c(=O)c(C(=O)O)cn4C3CC3)CC2)N1` [Compound 6, 1-cyclopropyl-7-(4-(2-(3,5-dioxopyrazolidin-1-yl)-2-oxoethyl)piperazin-1-yl)-6-fluoro-4-oxo-1,4-dihydroquinoline-3-carboxylic acid], for which, on human DNA Topo II, the IC50 was 0.92 ± 0.05 µM, the inhibition at 0.1 µM turned out to be 28%, the inhibition at 1 µM worked out at 51.9% and the inhibition at 10 µM was determined as 76.3%. For the same molecule, the inhibition at 100 µM at human DNA Topo II worked out at 87.4%. In the assay with PC-3 cells, the “early apoptosis, fold more than the control” value is on record as 54.69 fold; the “late apoptosis, fold more than the control” value came to 31.72 fold; the “necrosis, fold more than the control” value stood at 1.62 fold; the “total apoptosis, fold more than the control” value is given as 13.02 fold.

With `O=C(CN1CCN(c2cc3c(cc2F)c(=O)c(C(=O)O)cn3C2CC2)CC1)NN=C1C(=O)Nc2ccccc21` [Compound 8a, 1-Cyclopropyl-6-fluoro-4-oxo-7-(4-(2-oxo-2-(2-(2-oxoindolin-3-ylidene)hydrazinyl)ethyl)piperazin-1-yl)-1,4-dihydroquinoline-3-carboxylic acid], at human DNA Topo II, the IC50 is 0.74 ± 0.04 µM, the inhibition at 0.1 µM came out at 32.5%, the inhibition at 1 µM was 50.3% and the inhibition at 10 µM worked out at 77.4%. Also, on human DNA Topo II, the inhibition at 100 µM worked out at 91.6%. Further, in the assay with PC-3 cells, the “early apoptosis, fold more than the control” value came to 41.15 fold; the “late apoptosis, fold more than the control” value was found to be 76.77 fold; the “necrosis, fold more than the control” value is listed as 2.44 fold; the “total apoptosis, fold more than the control” value is on record as 14.87 fold.

The values are drawn from publication PMC9635472, “Design, synthesis, and biological evaluation of novel ciprofloxacin derivatives as potential anticancer agents targeting topoisomerase II enzyme” (Journal of Enzyme Inhibition and Medicinal Chemistry, 2022).
